Legend:
[1] = metabolic stability, 2 h incubation with human liver microsomes, UPLC-MS; type: in vitro ADME
From the text: The metabolic stability of a compound is an important factor that determines its pharmacokinetics and its potential as a drug candidate. Drugs are being metabolized in a variety of tissues including lungs, kidneys, or intestinal walls, but the liver plays an essential role in this process.
Then, the UPLC/MS analyses were done by using a Waters ACQUITY TQD system with the TQ Detector (Waters, Milford, MA, USA). The in silico prediction of the most probable sites of metabolism was done by ADMET Predictor, ver. […]
7.4) at 37 °C in the presence of NADPH Regeneration System (Promega, Madison, WI, USA). […]

Huh7 cells [2] = assay: MTT cell viability assay on Huh7; type: cell-based, human; settings: for concentration at which compound began to elicit toxicity: Huh7, MTT, 24 h, 1-300 μM tested; for toxicity compared with ASS234: Huh7, MTT (Figure 5A)
Experimental: (§1) The human hepatoma cell line (Huh7) was purchased from the American Type Culture Collection (ATCC, Manassas, VA, USA). The generation and characterization of the immortalized mouse hepatocyte cell line WTIIB has been previously described.[24] Cell viability was measured by the quantitative colorimetric MTT (3-[4,5-dimethylthiazol-2-yl]-2,5 diphenyl tetrazolium bromide) assay as previously described, and triarylmethane dye (violet) assay following the protocol adapted from Feoktistova et al.[25] After the incubation period with the compounds, MTT reagent was added to each well at a final concentration of 0.5 mg/mL. The plate was placed in a humidified incubator at 37 °C with 5% CO2 and 95% air for 2 h. Then, the precipitated formazan was dissolved with dimethyl sulfoxide (DMSO) and the colorimetric determination of MTT was measured in the spectrophotometer at 540 nm wavelength. Nontreated cells were considered controls and were taken as 100% viability.

WTIIB cells [3] = assay: MTT cell viability assay on WTIIB; type: cell-based, mouse; settings: for concentration at which compound began to elicit toxicity: MTT, 24 h, 1-300 μM tested
Experimental: as §1

Huh7 cells [4] = assay: crystal violet cell viability assay on Huh7; type: cell-based, human; settings: for concentration at which compound began to elicit toxicity: Huh7, crystal violet, 24 h, 1-300 μM tested; for toxicity compared with ASS234: Huh7, crystal violet (Figure 5C)
Experimental: as §1
(§2) To perform the crystal violet assay, wells were washed twice in PBS and cells were fixed with 100 μL of crystal violet (Sigma-Aldrich, Madrid, Spain) solution at 0.2% prepared in ethanol. Plates were incubated for 20 min at room temperature in a bench rocker. Next, wells were washed four times with distilled water, and then the plate was inverted gently to remove any remaining liquid. The plate was dried at room temperature for at least 2 h and attached cells were resuspended in SDS 1% for 30 min in a bench rocker. The optical density was measured in the spectrophotometer at 540 nm wavelength. Nontreated cells were considered controls and were taken as 100% viability.

WTIIB cells [5] = assay: crystal violet cell viability assay on WTIIB; type: cell-based, mouse; settings: for concentration at which compound began to elicit toxicity: crystal violet, 24 h, 1-300 μM tested; for toxicity compared with ASS234: crystal violet (Figure 5D)
Experimental: as §1, §2

[6] = precipitation during incubation in MTS assay; type: physicochemical; settings: 72 h
Experimental: (A) Concentration–response on HEK-293 cells. (B) Concentration–response on HepG2 cells. Statistical significance was evaluated by one-way ANOVA, followed by Bonferroni’s comparison test (****p < 0.0001). DX, doxorubicin; CCCP, carbonyl cyanide 3-chlorophenyl […]. ASS234 precipitated at 100 μM during incubation.
(§3) Cytotoxicity and hepatotoxicity were estimated using the human embryonic kidney HEK-293 cell line (ATCC CRL-1573) and hepatoma HepG2 (ATCC HB-8065) cell line. The CellTiter 96 Aqueous Non-Radioactive Cell Proliferation Assay (MTS) was purchased from Promega (Madison, WI, USA) and performed according to the manufacturer’s protocol. […] The antiproliferative drug doxorubicin (DX) (1 μM) and mitochondrial toxin carbonyl cyanide 3-chlorophenyl-hydrazone (CCCP) (10 μM, only in hepatotoxicity assay) were used as positive controls (purchased from Sigma-Aldrich, St. Louis, MO, USA).

hAChE = settings: cited from earlier work
hBuChE = settings: cited from earlier work
hS1R = settings: read-out: KihS1R; cited from earlier work
MAO A = settings: Figure 1; cited from earlier work
MAO B = settings: Figure 1; cited from earlier work
HEK-293 cells = assay: MTS cell viability assay on HEK-293; type: cell-based, human; settings: HEK-293, MTS, 72 h; tested at 1, 10, 50, 100 μM
Experimental: as §3

HepG2 cells = assay: MTS cell viability assay on HepG2; type: cell-based, human; settings: 72 h, tested at 1, 10, 50, 100 μM
Experimental: as §3

[7] = target: histamine H3 receptor (H3R); settings: cited from earlier work
[8] = system: SH-SY5Y human neuroblastoma cells; set-up: method as in PMID 28861918; settings: cited from earlier work

Structure (SMILES)	parent compound detected after incubation with HLMs [1]	concentration at which compound began to elicit toxicity (Huh7 cells [2]) [µM]	concentration at which compound began to elicit toxicity (WTIIB cells [3]) [µM]	concentration at which compound began to elicit toxicity (Huh7 cells [4]) [µM]	concentration at which compound began to elicit toxicity (WTIIB cells [5]) [µM]	IC50 (hBuChE) [nM]	Ki (hS1R) [nM]	IC50 (MAO A) [nM]	IC50 (MAO B) [nM]	other results
C#CCN(C)Cc1cc2cc(OCCCC3CCN(Cc4ccccc4)CC3)ccc2n1C [ASS234]	the compound was not detected	≥ 30	≥ 30	≥ 30	≥ 30	1820	3	5	177	concentration at which compound precipitated during incubation [6]: 100 µM; IC50 (hAChE): 810 nM
C#CCNCc1cc2cc(OCc3ccccc3)ccc2[nH]1 [PF9601N, N-(2-Propynyl)-2-(5-Benzyloxy-Indolyl) Methylamine]	95%	–	–	–	–	–	–	1250	22	–
C#CCN(C)Cc1cc2cc(OCCCN3CCCCC3)ccc2n1C [contilisant]	97%	≥ 30	100	≥ 30	100	1690	65	–	78	concentration range not affecting cell viability (HEK-293 cells): up to 10 μM; concentration range not affecting cell viability (HepG2 cells): up to 50 μM; toxicity compared with ASS234 (Huh7 cells [2]; 30 μM): less toxic than ASS234; toxicity compared with ASS234 (Huh7 cells [2]; 300 μM): more toxic than ASS234; concentration range not affecting cell viability (Huh7 cells [2]; Huh7, abstract, assay not specified (MTT / crystal violet)): up to 30 μM; toxicity compared with ASS234 (WTIIB cells [3]; 300 μM, MTT (Figure 5B)): more toxic than ASS234; toxicity compared with ASS234 (Huh7 cells [4]; 30 μM): less toxic than ASS234; toxicity compared with ASS234 (Huh7 cells [4]; 300 μM): more toxic than ASS234; toxicity compared with ASS234 (WTIIB cells [5]; 100 μM): less toxic than ASS234; toxicity compared with ASS234 (WTIIB cells [5]; 300 μM): more toxic than ASS234; Ki [7]: 11 nM; effective concentration used in neuroprotection experiments [8]: 0.3 to 3 µM
C#CCN(C)[C@H](C)Cc1ccccc1 [selegiline, reference compound]	–	–	–	–	–	–	–	–	–	fraction of compound metabolized by HLMs [1]: about 54%

Source: article PMC7677930, “In Vitro and In Silico ADME-Tox Profiling and Safety Significance of Multifunctional Monoamine Oxidase Inhibitors Targeting Neurodegenerative Diseases” (ACS Chemical Neuroscience, 2020)
